Experimental findings from PubChem BioAssay AID272 (DTP/NCI, 2004) are described below.

Each structure is given as a SMILES string. Several values for one entry are separate records, joined by “and”; a condition that tells them apart may be missing. Equal values may be shown once. Inconclusive results are not listed.

This experiment has as its system Lewis lung carcinoma i.m., BDF1 mice, T/C %. Nature of the experiment: NCI In Vivo Anticancer Drug Screen. Data for tumor model Lewis Lung Carcinoma (intramuscular) in B6D2F1 (BDF1) mice. A digest of the protocol:
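Tumour-bearing mice were dosed with compound, and either their survival or their tumour size was measured. Results were expressed relative to vehicle-treated controls as T/C.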

Where [1] appears, read: endpoint: mean tumor weight (est.), dose: 100.0 mg/kg/injection, schedule: Q01DX011 (ip), vehicle: saline with Tween-80, higher = larger tumour.
Where [2] appears, read: endpoint: median survival time, dose: 100.0 mg/kg/injection, schedule: Q01DX011 (ip), vehicle: saline with Tween-80, higher = longer survival.
[3] abbreviates: endpoint: median survival time, dose: 0.25 mg/kg/injection, schedule: Q01DX011 (ip), vehicle: water, higher = longer survival.
[4] abbreviates: endpoint: mean tumor weight (est.), dose: 200.0 mg/kg/injection, schedule: Q01DX011 (ip), vehicle: saline with Tween-80, higher = larger tumour.

On to `CCCCNC(C)(C)COC(=O)/C=C/c1ccc(OCCCC)cc1`, for which the T/C by setting is: (endpoint: mean tumor weight (est.), dose: 12.5 mg/kg/injection, schedule: Q01DX011 (ip), vehicle: saline with Tween-80, higher = larger tumour) 89 % of control; (endpoint: mean tumor weight (est.), dose: 25.0 mg/kg/injection, schedule: Q01DX011 (ip), vehicle: saline with Tween-80, higher = larger tumour) 82 % of control; (endpoint: mean tumor weight (est.), dose: 50.0 mg/kg/injection, schedule: Q01DX011 (ip), vehicle: saline with Tween-80, higher = larger tumour) 67 % of control; under setting [1], 59 % of control; (endpoint: median survival time, dose: 12.5 mg/kg/injection, schedule: Q01DX011 (ip), vehicle: saline with Tween-80, higher = longer survival) 88 % of control; (endpoint: median survival time, dose: 25.0 mg/kg/injection, schedule: Q01DX011 (ip), vehicle: saline with Tween-80, higher = longer survival) 110 % of control. Besides, the T/C is 104 % of control (endpoint: median survival time, dose: 50.0 mg/kg/injection, schedule: Q01DX011 (ip), vehicle: saline with Tween-80, higher = longer survival) and 98 % of control under setting [2].

Take `C=C(C(=O)OC1CC2CCC(C1)N2C)c1ccccc1` (stereo not given): the T/C (endpoint: median survival time, dose: 7.5 mg/kg/injection, schedule: Q01DX011 (ip), vehicle: saline, higher = longer survival) is 119 % of control.

Turning to `CS(=O)(=O)OCCCCOS(C)(=O)=O`, the T/C (endpoint: mean tumor weight, dose: 12.5 mg/kg/injection, schedule: Q01DX011 (ip), vehicle: Klucel (hydroxypropylcellulose) (HPC), higher = larger tumour) was 88 % of control; the T/C (endpoint: mean tumor weight, dose: 25.0 mg/kg/injection, schedule: Q01DX011 (ip), vehicle: Klucel (hydroxypropylcellulose) (HPC), higher = larger tumour) is 109 % of control; the T/C (endpoint: median survival time, dose: 12.5 mg/kg/injection, schedule: Q01DX011 (ip), vehicle: Klucel (hydroxypropylcellulose) (HPC), higher = longer survival) was 89 % of control.

As to `[N-]=[N+]=CC(=O)CCC(N)C(=O)O` (stereo not given), the T/C (endpoint: mean tumor weight, dose: 7.5 micrograms/kg/injection, schedule: Q01DX011 (ip), vehicle: saline, higher = larger tumour) was 107 % of control; the T/C (endpoint: mean tumor weight, dose: 15.0 micrograms/kg/injection, schedule: Q01DX011 (ip), vehicle: saline, higher = larger tumour) is 77 % of control; the T/C (endpoint: mean tumor weight, dose: 30.0 micrograms/kg/injection, schedule: Q01DX011 (ip), vehicle: saline, higher = larger tumour) is 75 % of control; the T/C (endpoint: mean tumor weight, dose: 60.0 micrograms/kg/injection, schedule: Q01DX011 (ip), vehicle: saline, higher = larger tumour) was 102 % of control; the T/C (endpoint: median survival time, dose: 7.5 micrograms/kg/injection, schedule: Q01DX011 (ip), vehicle: saline, higher = longer survival) was 114 % of control; the T/C (endpoint: median survival time, dose: 30.0 micrograms/kg/injection, schedule: Q01DX011 (ip), vehicle: saline, higher = longer survival) is 90 % of control. In addition, the T/C (endpoint: median survival time, dose: 60.0 micrograms/kg/injection, schedule: Q01DX011 (ip), vehicle: saline, higher = longer survival) is 90 % of control.

As for `Cc1cc[n+](CCc2ccccc2)cc1`, the T/C (endpoint: mean tumor weight (est.), dose: 12.5 mg/kg/injection, schedule: Q01DX011 (ip), vehicle: saline, higher = larger tumour) is 76 % of control; the T/C (endpoint: mean tumor weight (est.), dose: 25.0 mg/kg/injection, schedule: Q01DX011 (ip), vehicle: saline, higher = larger tumour) is 95 % of control; the T/C (endpoint: mean tumor weight (est.), dose: 50.0 mg/kg/injection, schedule: Q01DX011 (ip), vehicle: saline, higher = larger tumour) was 75 % of control; the T/C (endpoint: median survival time, dose: 12.5 mg/kg/injection, schedule: Q01DX011 (ip), vehicle: saline, higher = longer survival) is 94 % of control; the T/C (endpoint: median survival time, dose: 25.0 mg/kg/injection, schedule: Q01DX011 (ip), vehicle: saline, higher = longer survival) was 102 % of control; the T/C (endpoint: median survival time, dose: 50.0 mg/kg/injection, schedule: Q01DX011 (ip), vehicle: saline, higher = longer survival) was 106 % of control.

For `CO[C@H](C(=O)[C@@H](O)[C@@H](C)O)[C@@H]1Cc2cc3cc(OC4CC(OC5CC(O)C(O)C(C)O5)C(O)C(C)O4)c(C)c(O)c3c(O)c2C(=O)[C@H]1OC1CC(OC2CC(OC3CC(C)(O)C(O)C(C)O3)C(O)C(C)O2)C(O)C(C)O1` (stereo not given in full), the T/C is, setting by setting: (endpoint: mean tumor weight, dose: 0.06 mg/kg/injection, schedule: Q01DX011 (ip), vehicle: water, higher = larger tumour) 89 % of control; (endpoint: mean tumor weight, dose: 0.12 mg/kg/injection, schedule: Q01DX011 (ip), vehicle: water, higher = larger tumour) 107 % of control; (endpoint: mean tumor weight, dose: 0.25 mg/kg/injection, schedule: Q01DX011 (ip), vehicle: water, higher = larger tumour) 111 % of control; (endpoint: mean tumor weight, dose: 0.5 mg/kg/injection, schedule: Q01DX011 (ip), vehicle: water, higher = larger tumour) 66 % of control; (endpoint: median survival time, dose: 0.12 mg/kg/injection, schedule: Q01DX011 (ip), vehicle: water, higher = longer survival) 108 % of control and 114 % of control; (endpoint: median survival time, dose: 0.13 mg/kg/injection, schedule: Q01DX009 (ip), vehicle: water, higher = longer survival) 94 % of control and 104 % of control. For the same molecule, the T/C (endpoint: median survival time, dose: 0.25 mg/kg/injection, schedule: Q01DX009 (ip), vehicle: water, higher = longer survival) was 97 % of control and 101 % of control; the T/C under setting [3] was 92 % of control and 109 % of control; the T/C (endpoint: median survival time, dose: 0.5 mg/kg/injection, schedule: Q01DX009 (ip), vehicle: water, higher = longer survival) is 95 % of control and 108 % of control; the T/C (endpoint: median survival time, dose: 0.5 mg/kg/injection, schedule: Q01DX011 (ip), vehicle: water, higher = longer survival) was 103 % of control and 114 % of control; the T/C (endpoint: median survival time, dose: 1.0 mg/kg/injection, schedule: Q01DX009 (ip), vehicle: water, higher = longer survival) is 111 % of control.

With `O=[N+]([O-])c1ccc(N/N=C/CC(O)CO)c([N+](=O)[O-])c1` (stereo not given), the T/C runs as follows: under setting [1], 57 % of control; under setting [4], 52 % of control; under setting [2], 92 % of control.

Regarding `CCCCN(CC)C(=S)S[Te](SC(=S)N(CC)CCCC)(SC(=S)N(CC)CCCC)SC(=S)N(CC)CCCC`, the T/C is 72 % of control under setting [1]; 54 % of control under setting [4]; 29 % of control (endpoint: mean tumor weight (est.), dose: 400.0 mg/kg/injection, schedule: Q01DX011 (ip), vehicle: saline with Tween-80, higher = larger tumour); 121 % of control under setting [2]; 114 % of control (endpoint: median survival time, dose: 200.0 mg/kg/injection, schedule: Q01DX011 (ip), vehicle: saline with Tween-80, higher = longer survival); 121 % of control (endpoint: median survival time, dose: 400.0 mg/kg/injection, schedule: Q01DX011 (ip), vehicle: saline with Tween-80, higher = longer survival).

Turning to `Cc1c[n+]2c3ccccc3c3ccccc3c2s1`, the T/C runs as follows: (endpoint: mean tumor weight, dose: 10.0 mg/kg/injection, schedule: Q01DX011 (ip), vehicle: saline, higher = larger tumour) 112 % of control; (endpoint: median survival time, dose: 10.0 mg/kg/injection, schedule: Q01DX011 (ip), vehicle: saline with Tween-80, higher = longer survival) 89 % of control.

In the case of `Nc1ncnc2c1ncn2C1OC(CO)C(O)C1O` (stereo not given), the T/C was 65 % of control (endpoint: mean tumor weight (est.), dose: 200.0 mg/kg/injection, schedule: Q01DX011 (ip), vehicle: saline, higher = larger tumour); 63 % of control (endpoint: mean tumor weight (est.), dose: 400.0 mg/kg/injection, schedule: Q01DX011 (ip), vehicle: saline, higher = larger tumour); 15 % of control (endpoint: mean tumor weight (est.), dose: 600.0 mg/kg/injection, schedule: Q01DX011 (ip), vehicle: saline, higher = larger tumour); 119 % of control (endpoint: median survival time, dose: 200.0 mg/kg/injection, schedule: Q01DX011 (ip), vehicle: saline, higher = longer survival); 86 % of control (endpoint: median survival time, dose: 400.0 mg/kg/injection, schedule: Q01DX011 (ip), vehicle: saline, higher = longer survival).

On to `Cc1cccc2cc3c(ccc4ccccc43)c[n+]12`, for which the T/C is 91 % of control (endpoint: mean tumor weight (est.), dose: 1.0 mg/kg/injection, schedule: Q01DX011 (ip), vehicle: saline, higher = larger tumour); 87 % of control (endpoint: mean tumor weight (est.), dose: 2.0 mg/kg/injection, schedule: Q01DX011 (ip), vehicle: saline, higher = larger tumour); 83 % of control (endpoint: mean tumor weight (est.), dose: 4.0 mg/kg/injection, schedule: Q01DX011 (ip), vehicle: saline, higher = larger tumour); 46 % of control (endpoint: mean tumor weight (est.), dose: 8.0 mg/kg/injection, schedule: Q01DX011 (ip), vehicle: saline, higher = larger tumour); 98 % of control (endpoint: median survival time, dose: 1.0 mg/kg/injection, schedule: Q01DX011 (ip), vehicle: saline, higher = longer survival); 101 % of control (endpoint: median survival time, dose: 2.0 mg/kg/injection, schedule: Q01DX011 (ip), vehicle: saline, higher = longer survival). In addition, the T/C is, setting by setting: (endpoint: median survival time, dose: 4.0 mg/kg/injection, schedule: Q01DX011 (ip), vehicle: saline, higher = longer survival) 98 % of control; (endpoint: median survival time, dose: 8.0 mg/kg/injection, schedule: Q01DX011 (ip), vehicle: saline, higher = longer survival) 121 % of control.

`COc1cccc2c1C(=O)c1c(O)c3c(c(O)c1C2=O)C[C@@](O)(C(=O)CO)C[C@@H]3OC1CC(N)C(O)C(C)O1` (stereo not given in full): the T/C is 100 % of control and 120 % of control under setting [3]; 100 % of control and 102 % of control (endpoint: median survival time, dose: 0.65 mg/kg/injection, schedule: Q03HX008 (ip), vehicle: water, higher = longer survival); 123 % of control (endpoint: median survival time, dose: 1.08 mg/kg/injection, schedule: Q03HX008 (ip), vehicle: water, higher = longer survival); 26 % of control (endpoint: median survival time, dose: 1.8 mg/kg/injection, schedule: Q03HX008 (ip), vehicle: water, higher = longer survival); 17 % of control (endpoint: median survival time, dose: 3.0 mg/kg/injection, schedule: Q03HX008 (ip), vehicle: water, higher = longer survival).
